We go through 29 molecules from US20230091047A1 (priority 2019, published 2023).

The test system of data set [1] is HBV (HepG2.117 cell line, inducibly HBV producing). Briefly: Anti-HBV activity: intracellular HBV DNA by real-time PCR in HepG2.117 cells after 3 days of treatment. The format is cell-based, hepatitis B virus. An outline of the steps:
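Antiviral effect is expressed through intracellular HBV DNA levels, determined by real-time PCR with a virus-specific probe. These levels were measured after 3 days of treatment with compound dilutions, in HepG2.117 cells induced to replicate HBV.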
In general terms: In qPCR the cycle at which signal appears reflects the starting amount.

The next data set in a line: in vitro. The format is cell-based. To be noted: human, HepG2 or HepG2.117 cells, ATPlite, mean value. A digest of the protocol:
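Luminescent ATP quantitation served as the viability endpoint following a 3- or 4-day incubation with test compounds.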

The mark [2] stands for this setting: Hepatitis B virus, HepG2.117, 72 h, HepG2.117 cells, intracellular HBV DNA by real-time PCR, 3 days of treatment, mean value; read-out: EC50 (μM, mean value).
The mark [3] stands for this setting: 3-days incubation (not marked with *).
The mark [4] stands for this setting: Hepatitis B virus, HepG2.117, 72 h, HepG2.117 cells, 3 days of treatment, intracellular HBV DNA by real-time PCR; mean value; read-out: EC50 (μM, mean value).
Setting [5] is: 3-days incubation (unmarked values).

Molecules are shown by their SMILES. Like-named read-outs stand apart in the source and are kept apart here.

As a reminder, the EC50 is the concentration at which the effect is half-maximal. The CC50 is the concentration giving 50% cytotoxicity. Higher therefore signals better tolerance by the cells. Take `CNC(=O)c1ccc(-n2c(NC(C)C)nc3c(c2=O)C[C@@H](C)N(C(=O)c2ccc(C#N)c(Cl)c2)C3)cc1` [Compound C508]: the EC50 in data set [1] (setting [2]) was determined as 0.88 µM. Besides, the half-maximal cytotoxic concentration (CC50) at 3 days in the data set “in vitro” (setting [3]) is over 50 µM.

For the molecule `CC(C)Nc1nc2c(c(=O)n1-c1ccc(-c3nn[nH]n3)cc1)C[C@@H](C)N(C(=O)c1ccc(Cl)c(Cl)c1)C2` [Compound C453], in data set [1] (setting [2]), the concentration giving a half-maximal response (EC50) was 5.81 µM. The molecule also gave a half-maximal cytotoxic concentration (CC50) at 3 days in the data set “in vitro” (setting [3]) of over 50 µM.

On to `CNC(=O)c1ccc(-n2c(N[C@@H](C)CO)nc3c(c2=O)C[C@@H](C)N(C(=O)c2ccc(Cl)c(Cl)c2)C3)cc1` [Compound C272, 4-[(6R)-7-(3,4-dichlorobenzoyl)-2-{[(2S)-1-hydroxypropan-2-yl]amino}-6-methyl-4-oxo-5,6,7,8-tetrahydropyrido[3,4-d]pyrimidin-3(4H)-yl]-N-methylbenzamide], for which the EC50 in data set [1] (setting [4]) worked out at 2.39 µM. In the data set “in vitro” (setting [5]), this molecule registered a CC50 at 3 days of over 50 µM.

On to `CNC(=O)c1ccc([C@H](C)Nc2nc3c(c(=O)n2-c2ccc(NC(C)=O)cc2)C[C@@H](C)N(C(=O)c2ccc(Cl)c(Cl)c2)C3)cc1` (single isomer, unassigned) [Compound C528b], for which the EC50 in data set [1] (setting [2]) was over 10 µM. In addition, the CC50 at 3 days in “in vitro” (setting [3]) was over 50 µM.

As to `CNC(=O)c1ccc(-n2c(NC(C)c3nccs3)nc3c(c2=O)C[C@@H](C)N(C(=O)c2ccc(Cl)c(Cl)c2)C3)cc1` (stereo partly shown) [Compound C434], the concentration giving a half-maximal response (EC50) in data set [1] (setting [2]) amounted to 0.57 µM. In the data set “in vitro” (setting [3]), this molecule returned a CC50 at 3 days of over 50 µM.

In the case of `COc1ccc(CNc2nc3c(c(=O)[nH]2)CCN(C(=O)c2ccc(Cl)cc2)C3)cc1` [Compound C115, 7-(4-chlorobenzoyl)-2-{[(4-methoxyphenyl)methyl]amino}-5,6,7,8-tetrahydropyrido[3,4-d]pyrimidin-4(3H)-one], in data set [1] (setting [4]), the concentration for a half-maximal effect (EC50) is 37.1 µM. In addition, the cytotoxic concentration (CC50) at 3 days in the data set “in vitro” (setting [5]) is 42.8 µM.

As for `CC(C)Nc1nc2c(c(=O)n1-c1cccc(-n3ccnn3)c1)C[C@@H](C)N(C(=O)c1ccc(Cl)c(Cl)c1)C2` [Compound C442], in data set [1] (setting [2]), the concentration giving a half-maximal response (EC50) was found to be 0.21 µM. Further, the CC50 at 3 days in the data set “in vitro” (setting [3]) is over 50 µM.

With `COc1ccc(CNc2nc3c(c(=O)[nH]2)CCN(C(=O)c2ccc(I)cc2)C3)cc1` [Compound C117, 7-(4-iodobenzoyl)-2-{[(4-methoxyphenyl)methyl]amino}-5,6,7,8-tetrahydropyrido[3,4-d]pyrimidin-4(3H)-one], the concentration for a half-maximal effect (EC50) in data set [1] (setting [4]) was 9.61 µM. The molecule further came in with a CC50 at 3 days in “in vitro” (setting [5]) of 43.5 µM.

Regarding `CC(C)Nc1nc2c(c(=O)n1-c1ccc(S(C)(=O)=O)cc1)CCN(C(=O)c1ccc3ncoc3c1)C2` [Compound C151, 7-(1,3-benzoxazole-6-carbonyl)-3-[4-(methanesulfonyl)phenyl]-2-[(propan-2-yl)amino]-5,6,7,8-tetrahydropyrido[3,4-d]pyrimidin-4(3H)-one], the EC50 in data set [1] (setting [4]) was 10.7 µM. This molecule yielded a CC50 at 3 days in the data set “in vitro” (setting [5]) of over 50 µM.

As for `CNC(=O)c1ccc(-n2c(NC(C)C)nc3c(c2=O)C[C@@H](C)N(C(=O)c2ccc(Cl)c(C(F)(F)F)c2)C3)c(Cl)c1` (single isomer, unassigned) [Compound C639a], the EC50 in data set [1] (setting [2]) is 0.02 µM. The molecule further gave a CC50 at 3 days in the data set “in vitro” (setting [3]) of over 50 µM.

As to `CNC(=O)c1ccc(-n2c(N[C@H](CC3CC3)c3ccccc3)nc3c(c2=O)C[C@@H](C)N(C(=O)c2ccc(Cl)c(Cl)c2)C3)cc1` (single isomer, unassigned) [Compound C437a], in data set [1] (setting [2]), the EC50 is 0.16 µM. For the same molecule, it took 24.6 µM to reach half-maximal cytotoxicity in “in vitro” (setting [3]) (CC50 at 3 days).

Consider `CNC(=O)c1ccc(-n2c(NC(C)C)nc3c(c2=O)C[C@@H](C)N(C(=O)c2cc4c(Br)c(F)ccc4[nH]2)C3)cc1` [Compound C572], for which, in data set [1] (setting [2]), the 50% effective concentration (EC50) was found to be 0.01 µM. This molecule gave a CC50 at 3 days in the data set “in vitro” (setting [3]) of 14.6 µM.

Regarding `CNC(=O)c1ccc(-n2c(NC(C)C)nc3c(c2=O)C[C@@H](C)N(C(=O)c2ccc(C)cc2)C3)cc1` [Compound C507], the EC50 in data set [1] (setting [2]) turned out to be 2.89 µM. In “in vitro” (setting [3]), the CC50 at 3 days was over 50 µM.

Consider `CNC(=O)c1ccc(-n2c(N[C@@H](C)c3ccc(C(F)(F)F)cc3)nc3c(c2=O)C[C@@H](C)N(C(=O)c2ccc(Cl)c(C(F)F)c2)C3)cc1` [Compound C628], for which, in data set [1] (setting [2]), the EC50 is 0.05 µM. Also, the CC50 at 3 days in “in vitro” (setting [3]) stood at 23.2 µM.

As to `CC(C)Nc1nc2c(c(=O)n1-c1ccc(C(=O)NC3(C(=O)O)CC3)cc1)C[C@@H](C)N(C(=O)c1ccc(Cl)c(Cl)c1)C2` [Compound C266, 1-{4-[(6R)-7-(3,4-dichlorobenzoyl)-6-methyl-4-oxo-2-[(propan-2-yl)amino]-5,6,7,8-tetrahydropyrido[3,4-d]pyrimidin-3(4H)-yl]benzamido}cyclopropane-1-carboxylic acid], the EC50 in data set [1] (setting [4]) stood at 13.4 µM. Further, the half-maximal cytotoxic concentration (CC50) at 3 days in the data set “in vitro” (setting [5]) was over 50 µM.

Regarding `CNC(=O)c1ccc(-n2c(NCc3c[nH]nn3)nc3c(c2=O)C[C@@H](C)N(C(=O)c2ccc(Cl)c(Cl)c2)C3)cc1` [Compound C423], the EC50 in data set [1] (setting [2]) is over 7.4 µM. Also, the half-maximal cytotoxic concentration (CC50) at 3 days in “in vitro” (setting [3]) is over 50 µM.

Take `CC(C)Nc1nc2c(c(=O)n1-c1ccc(-c3cscn3)cc1)CCN(C(=O)c1ccc(Cl)c(Cl)c1)C2` [Compound C170, 7-(3,4-dichlorobenzoyl)-2-[(propan-2-yl)amino]-3-[4-(1,3-thiazol-4-yl)phenyl]-5,6,7,8-tetrahydropyrido[3,4-d]pyrimidin-4(3H)-one]: the half-maximal effective concentration (EC50) in data set [1] (setting [4]) worked out at 0.53 µM. Besides, the 50% cytotoxic concentration (CC50) at 3 days in “in vitro” (setting [5]) is over 50 µM.

Turning to `CC(C)Nc1nc2c(c(=O)n1-c1ccc(S(C)(=O)=O)cc1)C[C@@H](c1ccc(F)cc1)N(C(=O)c1ccc(Cl)c(Cl)c1)C2` (single isomer, unassigned) [Compound C110A, (6*S)-7-(3,4-dichlorobenzoyl)-6-(4-fluorophenyl)-3-[4-(methanesulfonyl)phenyl]-2-[(propan-2-yl)amino]-5,6,7,8-tetrahydropyrido[3,4-d]pyrimidin-4(3H)-one], in data set [1] (setting [4]), the 50% effective concentration (EC50) was over 50 µM. This molecule gave a half-maximal cytotoxic concentration (CC50) at 3 days in “in vitro” (setting [5]) of over 50 µM.

Regarding `CNC(=O)c1ccc(-n2c(NC3CC3(C)C)nc3c(c2=O)C[C@@H](C)N(C(=O)c2ccc(Cl)c(Cl)c2)C3)cc1` (stereo partly drawn) [Compound C333, 4-[(6R)-7-(3,4-dichlorobenzoyl)-2-[(2,2-dimethylcyclopropyl)amino]-6-methyl-4-oxo-5,6,7,8-tetrahydropyrido[3,4-d]pyrimidin-3(4H)-yl]-N-methylbenzamide], the EC50 in data set [1] (setting [4]) stood at 1.64 µM. In addition, the CC50 at 3 days in the data set “in vitro” (setting [5]) was over 43 µM.

For `COc1ccccc1-n1c(NC(C)(C)C)nc2c(c1=O)CCN(C(=O)c1ccc(Cl)c(Cl)c1)C2` [Compound C53, 2-(tert-butylamino)-7-(3,4-dichlorobenzoyl)-3-(2-methoxyphenyl)-5,6,7,8-tetrahydropyrido[3,4-d]pyrimidin-4(3H)-one], the concentration for a half-maximal effect (EC50) in data set [1] (setting [4]) is 2.05 µM. Also, half-maximal cytotoxicity in the data set “in vitro” (setting [5]) (CC50 at 3 days) was put at 31.6 µM.

In the case of `CC(C)Nc1nc2c(c(=O)n1-c1ccc(S(C)(=O)=O)cc1)CCN(C(=O)c1ccc(Cl)c(Cl)n1)C2` [Compound C223, 7-(5,6-dichloropyridine-2-carbonyl)-3-[4-(methanesulfonyl)phenyl]-2-[(propan-2-yl)amino]-5,6,7,8-tetrahydropyrido[3,4-d]pyrimidin-4(3H)-one], the half-maximal effective concentration (EC50) in data set [1] (setting [4]) is over 10 µM. The CC50 at 3 days in the data set “in vitro” (setting [5]) was over 50 µM.

As to `CC(C)Nc1nc2c(c(=O)[nH]1)C[C@@H](C)N(C(=O)c1ccc(Cl)c(Cl)c1)C2` [Compound C384], in data set [1] (setting [2]), the EC50 was 0.75 µM. The CC50 at 3 days in “in vitro” (setting [3]) was over 50 µM.

In the case of `CNC(=O)c1ccc(-n2c(NC(C)C)nc3c(c2=O)C[C@@H](C)N(C(=O)c2ccc(Cl)cc2OC)C3)cc1` [Compound C593], the EC50 in data set [1] (setting [2]) is over 25 µM. This molecule came in with a CC50 at 3 days in “in vitro” (setting [3]) of over 50 µM.

`COc1ccc(CNc2nc3c(c(=O)n2-c2ccccc2OC)CC(C)N(C(=O)c2ccc(Cl)c(Cl)c2)C3)cc1` (stereo not shown) [Compound C36, 7-(3,4-dichlorobenzoyl)-3-(2-methoxyphenyl)-2-{[(4-methoxyphenyl)methyl]amino}-6-methyl-5,6,7,8-tetrahydropyrido[3,4-d]pyrimidin-4(3H)-one]: in data set [1] (setting [4]), the EC50 is 1.26 µM. In “in vitro” (setting [5]), the CC50 at 3 days was over 50 µM.

In the case of `CNC(=O)c1ccc(-n2c(N[C@@H](C)c3cccc(OC)c3)nc3c(c2=O)C[C@@H](C)N(C(=O)c2ccc(Cl)c(Cl)c2)C3)cc1` (single isomer, unassigned) [Compound C394b], the half-maximal effective concentration (EC50) in data set [1] (setting [2]) was found to be 0.15 µM. The same molecule had a cytotoxic concentration (CC50) at 3 days in the data set “in vitro” (setting [3]) of 29 µM.

With `COc1ccc(CNc2nc3c(c(=O)n2-c2ccc(-c4ncco4)cc2)CCN(C(=O)c2ccc(Cl)c(Cl)c2)C3)cc1` [Compound C160, 7-(3,4-dichlorobenzoyl)-2-{[(4-methoxyphenyl)methyl]amino}-3-[4-(1,3-oxazol-2-yl)phenyl]-5,6,7,8-tetrahydropyrido[3,4-d]pyrimidin-4(3H)-one], in data set [1] (setting [4]), the EC50 was determined as 0.54 µM. Besides, the cytotoxic concentration (CC50) at 3 days in “in vitro” (setting [5]) was over 50 µM.

In the case of `COc1ccc(CNc2nc3c(c(=O)n2-c2cc(OC)cc(S(C)(=O)=O)c2)CCN(C(=O)c2ccc(Cl)c(Cl)c2)C3)cc1` [Compound C87, 7-(3,4-dichlorobenzoyl)-3-[3-(methanesulfonyl)-5-methoxyphenyl]-2-{[(4-methoxyphenyl)methyl]amino}-5,6,7,8-tetrahydropyrido[3,4-d]pyrimidin-4(3H)-one], the EC50 in data set [1] (setting [4]) was 1.55 µM. This molecule had a CC50 at 3 days in the data set “in vitro” (setting [5]) of over 50 µM.

As to `COc1ccc(CNc2nc3c(c(=O)n2CC2CC2)CCN(C(=O)c2ccc(Cl)c(Cl)c2)C3)cc1` [Compound C59, 3-(cyclopropylmethyl)-7-(3,4-dichlorobenzoyl)-2-{[(4-methoxyphenyl)methyl]amino}-5,6,7,8-tetrahydropyrido[3,4-d]pyrimidin-4(3H)-one], in data set [1] (setting [4]), the EC50 was determined as 2.53 µM. The CC50 at 3 days in “in vitro” (setting [5]) is over 50 µM.

Regarding `CNC(=O)c1ccc(-n2c(NC(C)C)nc3c(c2=O)C[C@@H](C)N(C(=O)c2n[nH]c4ccc(Cl)cc24)C3)cc1` [Compound C473], the EC50 in data set [1] (setting [2]) was over 25 µM. This molecule also showed a cytotoxic concentration (CC50) at 3 days in “in vitro” (setting [3]) of over 50 µM.
